Measured values reported in patent US8138119B2, “Alkoxyalkyl spirocyclic tetramic acids and tetronic acids” (Bayer Cropscience AG, priority 2005, dated 2012).

How the values were obtained:
cereal = experiment: Profiling test, herbicidal post-emergence action with safener: container trials with cereal in a greenhouse, Mefenpyr 1 day prior to herbicide application; format: in vivo; settings: without safener
Experimental: Seeds of monocotyledonous and dicotyledonous weed and crop plants are placed in sandy loam soil in wood fibre pots or in plastic pots, covered with soil and cultivated in a greenhouse, during the vegetation period also outdoors outside of the greenhouse, under good growth conditions. 2-3 weeks after sowing, the test plants are treated at the one- to three-leaf stage. The test compounds, formulated as wettable powders (WP) or liquid (EC), are, in various dosages with a water application rate of 300 l/ha (converted), with wetting agent (0.2 to 0.3%) added, sprayed onto the plants and the surface of the soil. […]
If it is additionally to be tested as to whether safeners can improve the plant compatibility of test substances in the case of crop plants, the following options are used for applying the safener: • seeds of the crop plants are, before sowing, dressed with the safener substance (the amount of safener stated in percent, based on the weight of the seed) • before the application of the test substances, the proper plants are sprayed with the safener at a certain application rate per hectare (usually 1 day before the application of the test substances) • the safener is applied together with the test substance as a tank mix (the amount of safener stated in g/ha or as a ratio, based on the herbicide).
By comparing the effect of the test substances on crop plants without or with safener treatment, it is possible to assess the effect of the safener substance.

[1] = Determination of the log P values by HPLC on a reversed-phase column (C18); format: physicochemical; settings: for chromatographic logP: reversed-phase HPLC column (C18)
Experimental: The log P values given in the table were determined in accordance with EEC Directive 79/831 Annex V.A8 by HPLC (High Performance Liquid Chromatography) on a reversed-phase column (C18). Temperature: 43° C.
Mobile phases for the determination in the acidic range (pH 2.3): 0.1% aqueous phosphoric acid, acetonitrile; linear gradient from 10% acetonitrile to 90% acetonitrile
Calibration was carried out using unbranched alkan-2-ones (with 3 to 16 carbon atoms) whose log P values are known (determination of the log P values by the retention times using linear interpolation between two successive alkanones).

[2] = 28 days after application, 12.5 g of a.i./ha
[3] = 28 days after application, 25 g of a.i./ha
[4] = compounds of the formula (I-2-a), m.p. ° C./log P
[5] = compounds of the formula (III), cis/trans isomer mixture, first value of the cell
[6] = compounds of the formula (III), cis/trans isomer mixture, second value of the cell
[7] = 28 days after application, 11 g of a.i./ha
[8] = 28 days after application, 23 g of a.i./ha
[9] = 28 days after application, 46 g of a.i./ha
[10] = 28 days after application, 91 g of a.i./ha

SMILES: CCc1cc(C)cc(Br)c1C1=C(O)C2(CCC(COC)CC2)NC1=O (single isomer, unassigned) [Example I-1-a-3]
- Summer barley observed (%) (cereal; [2]): 20%
- Summer barley observed (%) (cereal; [3]): 60%
- Summer wheat observed (%) (cereal; 10 days after application, 12.5 g of a.i./ha): 20%
- Summer wheat observed (%) (cereal; 10 days after application, 25 g of a.i./ha): 40%

SMILES: CCc1cc(Cl)cc(OC)c1C1=C(OC(=O)COC)C2(CCCC(COC)C2)NC1=O (single isomer, unassigned) [Example I-1-b-6]
- Summer barley observed (%) (cereal; [2]): 70%

SMILES: CCc1cc(C)cc(Br)c1C1=C(O)C2(CCCC(COC)C2)NC1=O (single isomer, unassigned) [Example I-1-a-8]
- Summer wheat observed (%) (cereal; [2]): 90%
- Summer wheat observed (%) (cereal; [3]): 95%

SMILES: COCC1CCC2(CC1)OC(=O)C(c1c(C)cc(C)cc1C)=C2O (stereo not drawn) [Example I-2-a-12]
- log P [1, 4]: oil/2.69

SMILES: COCCC1CCC2(CC1)OC(=O)C(c1cc(C)c(C)cc1C)=C2O (stereo not drawn) [Example I-2-a-31]
- log P [1, 4]: oil/2.92

SMILES: CCOC(=O)C1(OC(=O)Cc2cc(C)c(-c3ccc(Cl)cc3)cc2C)CCCC(CCOC)C1 (mixture of isomers) [III-25]
- log P [1, 5]: 6.03
- log P [1, 6]: 6.12

SMILES: CCc1cc(Br)cc(CC)c1C1=C(O)C2(CCCC(COC)C2)OC1=O (stereo not drawn) [Example I-2-a-7]
- log P [1, 4]: oil/3.44

SMILES: CCOC(=O)C1(OC(=O)Cc2c(CC)cc(Br)cc2CC)CCC(CCOC)CC1 (mixture of isomers) [III-32]
- log P [1, 5]: 5.75
- log P [1, 6]: 5.90

SMILES: COCCC1CCC2(CC1)OC(=O)C(c1cc(-c3ccc(Cl)cc3)ccc1C)=C2O (stereo not drawn) [Example I-2-a-28]
- log P [1, 4]: oil/3.71

SMILES: CCOC(=O)C1(OC(=O)Cc2c(C)cc(Cl)cc2C)CCCC(CCOC)C1 (mixture of isomers) [III-20]
- log P [1, 5]: 5.00
- log P [1, 6]: 5.11

SMILES: COCCC1CCCC2(C1)OC(=O)C(c1c(C)cc(Cl)cc1C)=C2O (stereo not drawn) [Example I-2-a-20]
- log P [1, 4]: oil/3.03

SMILES: CCOC(=O)C1(OC(=O)Cc2cc(-c3ccc(Cl)cc3)ccc2C)CCC(CCOC)CC1 (mixture of isomers) [III-28]
- log P [1, 5]: 5.69
- log P [1, 6]: 5.81

SMILES: CCOC(=O)C1(OC(=O)Cc2c(C)cc(C)cc2C)CCC(COC)CC1 (mixture of isomers) [III-12]
- log P [1, 5]: 4.76
- log P [1, 6]: 4.88

SMILES: COCCC1CCC2(CC1)OC(=O)C(c1cc(-c3ccc(Cl)cc3)ccc1Cl)=C2O (stereo not drawn) [Example I-2-a-35]
- log P [1, 4]: oil/3.67

SMILES: CCOC(=O)C1(OC(=O)Cc2cc(-c3ccc(Cl)cc3)ccc2C)CCC(COC)CC1 (mixture of isomers) [III-8]
- log P [1, 5]: 5.36
- log P [1, 6]: 5.49

SMILES: CCOC(=O)C1(OC(=O)Cc2c(C)cc(Br)cc2C)CCCC(COC)C1 (mixture of isomers) [III-3]
- log P [1, 5]: 4.94
- log P [1, 6]: 5.05

SMILES: CCOC(=O)C1(OC(=O)Cc2c(CC)cc(Br)cc2CC)CCCC(COC)C1 (mixture of isomers) [III-7]
- log P [1, 5]: 5.52
- log P [1, 6]: 5.62

SMILES: CCOC(=O)C1(OC(=O)Cc2c(C)cc(Br)cc2C)CCC(COC)CC1 (mixture of isomers) [III-9]
- log P [1, 5]: 4.88
- log P [1, 6]: 5.01

SMILES: COCC1CCC2(CC1)OC(=O)C(c1cc(C)c(C)cc1C)=C2O (stereo not drawn) [Example I-2-a-11]
- log P [1, 4]: oil/2.72

SMILES: CCc1cc(C)cc(CC)c1C1=C(O)C2(CCCC(CCOC)C2)OC1=O (stereo not drawn) [Example I-2-a-24]
- log P [1, 4]: oil/3.44

SMILES: CCc1cc(C)cc(CC)c1C1=C(OC(=O)C(C)C)C2(CCC(CCOC)CC2)OC1=O (stereo not drawn) [Example I-2-b-2]
- chromatographic logP ([1]; pH 2.3, HPLC reversed-phase column (C18), acidic range (pH 2.3), 43° C.): 5.43

SMILES: COCCC1CCCC2(C1)OC(=O)C(c1cc(-c3ccc(Cl)cc3)ccc1Cl)=C2O (stereo not drawn) [Example I-2-a-26]
- log P [1, 4]: oil/3.68

SMILES: COCCC1CCC2(CC1)OC(=O)C(c1c(C)cc(Cl)cc1C)=C2O (stereo not drawn) [Example I-2-a-30]
- log P [1, 4]: oil/3.00

SMILES: CCOC(=O)C1(OC(=O)Cc2cc(C)c(C)cc2C)CCC(CCOC)CC1 (mixture of isomers) [III-31]
- log P [1, 5]: 5.00
- log P [1, 6]: 5.09

SMILES: CCc1cc(Br)cc(CC)c1C1=C(O)C2(CCCC(CCOC)C2)OC1=O (stereo not drawn) [Example I-2-a-23]
- log P [1, 4]: oil/3.63

SMILES: CCOC(=O)C1(OC(=O)Cc2c(C)cc(Cl)cc2C)CCC(CCOC)CC1 (mixture of isomers) [III-30]
- log P [1, 5]: 5.00
- log P [1, 6]: 5.15

SMILES: CCOC(=O)C1(OC(=O)Cc2c(C)cc(C)cc2C)CCC(CCOC)CC1 (stereo not drawn) [III-1]
- log P ([1]; cis/trans isomer mixture, HPLC reversed-phase column (C18), acidic range (pH 2.3), 43° C.): 5.13
- chromatographic logP ([1]; pH 2.3, cis/trans isomer mixture, HPLC reversed-phase column (C18), acidic range (pH 2.3), 43° C.): 5.01

SMILES: CCOC(=O)C1(OC(=O)Cc2c(C)cc(Cl)cc2C)CCC(COC)CC1 (mixture of isomers) [III-10]
- log P [1, 5]: 4.76
- log P [1, 6]: 4.90

SMILES: COCC1CCCC2(C1)OC(=O)C(c1cc(-c3ccc(Cl)cc3)ccc1C)=C2O (stereo not drawn) [Example I-2-a-2]
- log P [1, 4]: oil/3.58

SMILES: CCc1cc(Br)cc(CC)c1C1=C(O)C2(CCC(CCOC)CC2)OC1=O (stereo not drawn) [Example I-2-a-32]
- log P [1, 4]: oil/3.59

SMILES: CCOC(=O)C1(OC(=O)Cc2cc(C)c(-c3ccc(Cl)cc3)cc2C)CCC(CCOC)CC1 (mixture of isomers) [III-34]
- log P [1, 5]: 6.14
- log P [1, 6]: 6.19

SMILES: CCOC(=O)C1(OC(=O)Cc2cc(-c3ccc(Cl)cc3)ccc2Cl)CCC(CCOC)CC1 (mixture of isomers) [III-35]
- log P [1, 5]: 5.70
- log P [1, 6]: 5.85

SMILES: CCOC(=O)C1(OC(=O)Cc2cc(-c3ccc(Cl)cc3)ccc2Cl)CCC(COC)CC1 (mixture of isomers) [III-16]
- log P [1, 5]: 5.52
- log P [1, 6]: 5.67

SMILES: CCOC(=O)C1(OC(=O)Cc2c(CC)cc(Br)cc2CC)CCC(COC)CC1 (mixture of isomers) [III-13]
- log P [1, 5]: 5.52
- log P [1, 6]: 5.65

SMILES: CCCOCC1CCCC2(C1)NC(=O)C(c1c(Br)cc(C)cc1CC)=C2O (single isomer, unassigned) [Example I-1-a-12]
- Summer barley observed (%) (cereal; [7]): 10%
- Summer barley observed (%) (cereal; [8]): 20%
- Summer barley observed (%) (cereal; [9]): 30%
- Summer barley observed (%) (cereal; [10]): 60%
- Summer wheat observed (%) (cereal; [7]): 10%
- Summer wheat observed (%) (cereal; [8]): 15%
- Summer wheat observed (%) (cereal; [9]): 20%
- Summer wheat observed (%) (cereal; [10]): 30%

SMILES: CCOC(=O)C1(OC(=O)Cc2cc(C)c(C)cc2C)CCC(COC)CC1 (mixture of isomers) [III-11]
- log P [1, 5]: 4.74
- log P [1, 6]: 4.85

SMILES: COCCC1CCCC2(C1)OC(=O)C(c1cc(C)c(-c3ccc(Cl)cc3)cc1C)=C2O (stereo not drawn) [Example I-2-a-25]
- log P [1, 4]: oil/4.03

SMILES: CCOC(=O)C1(OC(=O)Cc2cc(-c3ccc(Cl)cc3)ccc2Cl)CCCC(CCOC)C1 (mixture of isomers) [III-26]
- log P [1, 5]: 5.67
- log P [1, 6]: 5.82

SMILES: CCOC(=O)C1(OC(=O)Cc2c(C)cc(C)cc2C)CCCC(CCOC)C1 (mixture of isomers) [III-22]
- log P [1, 5]: 4.94
- log P [1, 6]: 5.05

SMILES: CCOC(=O)C1(OC(=O)Cc2cc(C)c(C)cc2C)CCCC(COC)C1 (mixture of isomers) [III-5]
- log P [1, 5]: 4.85
- log P [1, 6]: 4.93
